What was measured:
Assay in all cases: relative viability vs DMSO control (72 h) (fraction); higher = more viable cells
A204 = tested on: A204
How it was run: (§1)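 A 5 µM positive control and 0.1% DMSO vehicle ran alongside sarcoma cell lines seeded in 384-well plates to reach 80–90% confluence. Serially diluted compound, 2.5 µl from source plates of 10 mM to 0.0002 mM, was added after 24 h, and the plates were held 72 h at 37 °C, 5% CO2. Relative viability was worked out from ATPLite readings as percent growth averaged over up to triplicate wells. The values were rescaled so that 1 is full and 0 is none.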

G401 = tested on: G401
How it was run: as §1

HS729 = tested on: HS729
How it was run: as §1

KHOS-NP = tested on: KHOS-NP
How it was run: as §1

MES-SA = tested on: MES-SA
How it was run: as §1

RD = tested on: RD
How it was run: as §1

SK-ES-1 = tested on: SK-ES-1
How it was run: as §1

SK-LMS-1 = tested on: SK-LMS-1
How it was run: as §1

SW684 = tested on: SW684
How it was run: as §1

SW872 = tested on: SW872
How it was run: as §1

SYO-1 = tested on: SYO-1
How it was run: as §1

VA-ES-BJ = tested on: VA-ES-BJ
How it was run: as §1

O=C(/C=C\n1cnc(-c2cc(C(F)(F)F)cc(C(F)(F)F)c2)n1)NNc1cnccn1 [Selinexor]
Settings	relative viability
A204, 0.00017 µM	1.1
A204, 0.00051 µM	1.11
A204, 0.00152 µM	1.08
A204, 0.00457 µM	1.08
A204, 0.01372 µM	0.996
A204, 0.04115 µM	0.884
A204, 0.1235 µM	0.677
A204, 0.3704 µM	0.441
A204, 1.111 µM	0.299
A204, 3.333 µM	0.218
A204, 10 µM	0.171
G401, 0.00017 µM	1.07
G401, 0.00051 µM	1.05
G401, 0.00152 µM	1.04
G401, 0.00457 µM	0.985
G401, 0.01372 µM	0.943
G401, 0.04115 µM	0.8726
G401, 0.1235 µM	0.743
G401, 0.3704 µM	0.463
G401, 1.111 µM	0.366
G401, 3.333 µM	0.272
G401, 10 µM	0.235
HS729, 0.00017 µM	1.07
HS729, 0.00051 µM	1.06
HS729, 0.00152 µM	1.05
HS729, 0.00457 µM	0.98
HS729, 0.01372 µM	0.929
HS729, 0.04115 µM	0.835
HS729, 0.1235 µM	0.7742
HS729, 0.3704 µM	0.741
HS729, 1.111 µM	0.676
HS729, 3.333 µM	0.602
HS729, 10 µM	0.499
KHOS-NP, 0.00017 µM	1.09
KHOS-NP, 0.00051 µM	1.12
KHOS-NP, 0.00152 µM	1.131
KHOS-NP, 0.00457 µM	1.13
KHOS-NP, 0.01372 µM	1.12
KHOS-NP, 0.04115 µM	1.05
KHOS-NP, 0.1235 µM	0.727
KHOS-NP, 0.3704 µM	0.238
KHOS-NP, 1.111 µM	0.184
KHOS-NP, 3.333 µM	0.0993
KHOS-NP, 10 µM	0.0794
MES-SA, 0.00017 µM	1.011
MES-SA, 0.00051 µM	0.985
MES-SA, 0.00152 µM	0.971
MES-SA, 0.00457 µM	0.965
MES-SA, 0.01372 µM	0.911
MES-SA, 0.04115 µM	0.808
MES-SA, 0.1235 µM	0.4844
MES-SA, 0.3704 µM	0.342
MES-SA, 1.111 µM	0.255
MES-SA, 3.333 µM	0.189
MES-SA, 10 µM	0.1447
RD, 0.00017 µM	1.052
RD, 0.00051 µM	1.08
RD, 0.00152 µM	1.09
RD, 0.00457 µM	1.07
RD, 0.01372 µM	1.01
RD, 0.04115 µM	0.943
RD, 0.1235 µM	0.754
RD, 0.3704 µM	0.51007
RD, 1.111 µM	0.404
RD, 3.333 µM	0.304
RD, 10 µM	0.252
SK-ES-1, 0.00017 µM	1.05
SK-ES-1, 0.00051 µM	1.06
SK-ES-1, 0.00152 µM	1.04
SK-ES-1, 0.00457 µM	1.05
SK-ES-1, 0.01372 µM	0.953
SK-ES-1, 0.04115 µM	0.515
SK-ES-1, 0.1235 µM	0.0598
SK-ES-1, 0.3704 µM	0.014
SK-ES-1, 1.111 µM	0.0115
SK-ES-1, 3.333 µM	0.0084
SK-ES-1, 10 µM	0.013
SK-LMS-1, 0.00017 µM	1.03
SK-LMS-1, 0.00051 µM	1.03
SK-LMS-1, 0.00152 µM	0.98
SK-LMS-1, 0.00457 µM	0.95
SK-LMS-1, 0.01372 µM	0.856
SK-LMS-1, 0.04115 µM	0.736
SK-LMS-1, 0.1235 µM	0.512
SK-LMS-1, 0.3704 µM	0.319
SK-LMS-1, 1.111 µM	0.241
SK-LMS-1, 3.333 µM	0.246
SK-LMS-1, 10 µM	0.234
SW684, 0.00017 µM	1.14
SW684, 0.00051 µM	1.24
SW684, 0.00152 µM	1.23
SW684, 0.00457 µM	1.25
SW684, 0.01372 µM	1.18
SW684, 0.04115 µM	1.17
SW684, 0.1235 µM	0.953
SW684, 0.3704 µM	0.885
SW684, 1.111 µM	0.819
SW684, 3.333 µM	0.754
SW684, 10 µM	0.686
SW872, 0.00017 µM	1.065
SW872, 0.00051 µM	1.07
SW872, 0.00152 µM	1.075
SW872, 0.00457 µM	1.07
SW872, 0.01372 µM	1.06
SW872, 0.04115 µM	0.989
SW872, 0.1235 µM	0.823
SW872, 0.3704 µM	0.752
SW872, 1.111 µM	0.537
SW872, 3.333 µM	0.365
SW872, 10 µM	0.306
SYO-1, 0.00017 µM	1.02
SYO-1, 0.00051 µM	1.02
SYO-1, 0.00152 µM	1.02
SYO-1, 0.00457 µM	0.928
SYO-1, 0.01372 µM	0.804
SYO-1, 0.04115 µM	0.63
SYO-1, 0.1235 µM	0.534
SYO-1, 0.3704 µM	0.41
SYO-1, 1.111 µM	0.25
SYO-1, 3.333 µM	0.136
SYO-1, 10 µM	0.0755
VA-ES-BJ, 0.00017 µM	1.1
VA-ES-BJ, 0.00051 µM	1.09
VA-ES-BJ, 0.00152 µM	1.08
VA-ES-BJ, 0.00457 µM	1.03
VA-ES-BJ, 0.01372 µM	0.953
VA-ES-BJ, 0.04115 µM	0.78
VA-ES-BJ, 0.1235 µM	0.565
VA-ES-BJ, 0.3704 µM	0.318
VA-ES-BJ, 1.111 µM	0.198
VA-ES-BJ, 3.333 µM	0.187
VA-ES-BJ, 10 µM	0.165

Source: the supplement of paper PMC10883282
